Read-outs that look alike come from different tables or passages of the source.
Columns and labels:
Format in all cases: in vivo
[1] = tested on: Puccinia triticina; Synonym: Puccinia recondite f. Sp. Tritici; assay: Wheat Brown Rust (PUCCRT) disease control; details: Puccinia triticina, topical; for pest or weed control at 100 ppm: rate 100 ppm; for pest or weed control at 121.5 g/ha: rate 121.5 g/H
How it was run: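 Brown rust on first-leaf Yuma wheat: spore inoculation before or after spray application (acetone/Triton X-100 solution, or EC with Trycol in track spray), overnight 100% RH at 22 °C, disease developed at 24 °C. Severity scored 0–100% and converted to percent control against untreated.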

[2] = tested on: Uncinula necator; assay: Grape Powdery Mildew (UNCINE) disease control; details: Erysiphe necator, topical, 24 h, 1 Day Protectant, read-out: Disease Control UNCINE 1 DP
Protocol: Technical grades of materials were dissolved in acetone, which were then mixed with nine volumes of water containing 110 ppm Triton X-100. The fungicide solutions were applied onto wheat seedlings using an automated booth sprayer to run-off. All sprayed plants were allowed to air dry prior to further handling. All fungicides were evaluated using the aforementioned method for their activity vs. all target diseases. Wheat leaf blotch and brown rust activity were also evaluated using track spray applications, in which case the fungicides were formulated as EC formulations, containing 0.1% Trycol 5941 in the spray solutions. Wheat plants (variety Yuma) were grown from seed in a greenhouse in 50% mineral soil/50% soil-less Metro mix until the first leaf was fully emerged, with 7-10 seedlings per pot. These plants were inoculated with an aqueous spore suspension of Septoria tritici either prior to or after fungicide treatments. After inoculation the plants were kept in 100% relative humidity (one day in a dark dew chamber followed by two to three days in a lighted dew chamber at 20° C.) to permit spores to germinate and infect the leaf. The plants were then transferred to a greenhouse set at 20° C. for disease to develop. When disease symptoms were fully expressed on the 1st leaves of untreated plants, infection levels were assessed on a scale of 0 to 100 percent disease severity. Percent disease control was calculated using the ratio of disease severity on treated plants relative to untreated plants. Grape seedlings (variety Carignane) were grown in soil-less Metro mix, with one plant per pot, and used in the test when approximately one month old. Plants were inoculated 24 hr after fungicide treatment by shaking spores from infected leaves over test plants. Plants were maintained in a greenhouse set at 20° C. until disease was fully developed. Fungicide formulation, application and disease assessment on the sprayed leaves followed the procedures as described in the Example A.

[3] = tested on: Mycosphaerella graminicola; Anamorph: Septoria tritici; assay: Leaf Blotch of Wheat (SEPTTR) disease control; details: Zymoseptoria tritici; for pest or weed control at 100 ppm: rate 100 ppm; for pest or weed control at 121.5 g/ha: rate 121.5 g/H
How it was run: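 Yuma wheat, 1st leaf stage; spray to run-off, acetone + 9 vol water/110 ppm Triton X-100; S. tritici spores pre- or post-treatment; dew chamber 100% RH, then greenhouse 20° C. Read: % severity vs untreated → % control.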

[4] = 24 h, 1 Day Protectant, read-out: PUCCRT 1 DP disease control
[5] = 72 h, 3 Day Curative, read-out: PUCCRT 3 DC disease control
[6] = 24 h, 1 Day Protectant, read-out: SEPTTR 1 DP disease control
[7] = 72 h, 3 Day Curative, read-out: SEPTTR 3 DC disease control

Structure (SMILES)	pest or weed control at 100 ppm [1, 4] [%]	pest or weed control at 121.5 g/ha [1, 4] [%]	pest or weed control at 100 ppm [1, 5] [%]	pest or weed control at 121.5 g/ha [1, 5] [%]	pest or weed control at 100 ppm [2] [%]	pest or weed control at 100 ppm [3, 6] [%]	pest or weed control at 121.5 g/ha [3, 6] [%]	pest or weed control at 100 ppm [3, 7] [%]	pest or weed control at 121.5 g/ha [3, 7] [%]
COc1ccnc(C(=O)N[C@H]2CCC[C@H](Cc3ccccc3)[C@@H](OC3CCCC3)[C@H](C)OC2=O)c1OCOC(C)=O [Compound F110]	80 to 100	80 to 100	80 to 100	80 to 100	80 to 100	80 to 100	80 to 100	80 to 100	80 to 100
COc1ccc(C[C@H]2CCC[C@H](NC(=O)c3nccc(OC)c3OCOC(C)=O)C(=O)O[C@@H](C)[C@@H]2Oc2ccccc2)cc1 [Compound F114]	80 to 100	80 to 100	80 to 100	0 to 80	–	80 to 100	80 to 100	80 to 100	80 to 100
CCOCC(=O)OCOc1c(OC)ccnc1C(=O)N[C@H]1CCC[C@H](Cc2ccc(F)cc2)[C@@H](OCC(C)C)[C@H](C)OC1=O [Compound F168]	80 to 100	80 to 100	80 to 100	80 to 100	80 to 100	80 to 100	80 to 100	80 to 100	80 to 100
COc1ccnc(C(=O)N[C@H]2CCC[C@H](Cc3ccccc3)[C@@H](Oc3ccccc3)[C@H](C)OC2=O)c1OCOC(C)=O [Compound F108]	80 to 100	80 to 100	80 to 100	0 to 80	80 to 100	80 to 100	80 to 100	80 to 100	80 to 100
COc1ccnc(C(=O)N[C@H]2CCC[C@H](CC(F)F)[C@@H](Oc3ccccc3)[C@H](C)OC2=O)c1OCOC(C)=O [Compound F138]	80 to 100	80 to 100	80 to 100	80 to 100	0 to 80	80 to 100	80 to 100	80 to 100	80 to 100
COc1ccnc(C(=O)N[C@H]2CCC[C@H](CC(F)F)[C@@H](Oc3ccccc3)[C@H](C)OC2=O)c1OC(C)=O [Compound F82]	80 to 100	80 to 100	80 to 100	80 to 100	0 to 80	80 to 100	80 to 100	80 to 100	80 to 100
COc1ccnc(C(=O)N[C@H]2CCC[C@H](Cc3ccc(F)cc3)[C@@H](OCC(C)C)[C@H](C)OC2=O)c1OCOC(C)=O [Compound F102]	80 to 100	80 to 100	80 to 100	0 to 80	0 to 80	80 to 100	80 to 100	80 to 100	80 to 100

— US9265253B2, “Use of macrocyclic picolinamides as fungicides” (DOW AGROSCIENCES LLC, priority 2013, dated 2016)
